Measurements from US20240116985A1, “STAPLED PEPTIDES AND METHODS THEREOF” (priority 2020, published 2024).
Values after ≈ are worked out from the molar mass of the structure shown. Like-named read-outs stand apart in the source and are kept apart here.

How the values were obtained:
[1] = molecular target: T1, full-length beta-Catenin (Uniprot ID P35222) (Homo sapiens, UniProt P35222); assay: Fluorescence polarization IC50 (beta-catenin / 5FAM-TCF4 10-53 competition); assay type: binding
T1 construct: 10 nM full-length beta-Catenin (Uniprot ID P35222)
T1 sequence (P35222 1-781): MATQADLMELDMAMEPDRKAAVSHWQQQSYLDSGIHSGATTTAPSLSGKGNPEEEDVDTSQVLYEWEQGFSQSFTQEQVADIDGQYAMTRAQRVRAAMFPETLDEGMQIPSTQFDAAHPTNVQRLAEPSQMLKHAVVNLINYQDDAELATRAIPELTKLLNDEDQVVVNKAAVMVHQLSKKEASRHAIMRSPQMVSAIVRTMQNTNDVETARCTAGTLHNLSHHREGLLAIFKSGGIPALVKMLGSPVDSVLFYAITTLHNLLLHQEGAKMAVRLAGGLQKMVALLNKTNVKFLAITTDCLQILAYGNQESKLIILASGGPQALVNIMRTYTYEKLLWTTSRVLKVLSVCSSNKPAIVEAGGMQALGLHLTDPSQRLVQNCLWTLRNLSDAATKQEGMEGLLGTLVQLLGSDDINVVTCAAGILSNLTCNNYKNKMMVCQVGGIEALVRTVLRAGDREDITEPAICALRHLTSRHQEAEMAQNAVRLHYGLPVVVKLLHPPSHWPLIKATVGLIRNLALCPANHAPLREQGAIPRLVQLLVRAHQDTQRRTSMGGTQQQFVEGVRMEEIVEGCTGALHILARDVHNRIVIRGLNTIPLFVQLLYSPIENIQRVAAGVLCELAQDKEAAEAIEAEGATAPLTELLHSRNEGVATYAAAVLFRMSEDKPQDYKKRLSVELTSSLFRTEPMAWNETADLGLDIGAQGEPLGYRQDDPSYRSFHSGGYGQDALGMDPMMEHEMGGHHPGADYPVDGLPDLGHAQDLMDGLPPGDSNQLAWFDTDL

[2] = CHI Log D procedure; assay type: physicochemical; settings: for chromatographic logD: pH 7.4, CHI Log D; for CHI Log D: pH 7.4
[3] = Solubility in PBS; assay type: physicochemical
Procedure, shortened: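 The PBS solution was ultracentrifuged and the supernatant analyzed by HPLC. Its peak area was divided by that of a 50 μM peptide DMSO reference injection and multiplied by 50 uM to give solubility.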

[4] = fluorescence polarization, read-out: beta-Catenin FP IC50
[5] = Table E2-1, read-out: beta-Catenin FP IC50
[6] = fluorescence polarization, beta-catenin, read-out: FP EC50

Row | SMILES | IC50 [1, 4] [nM] | chromatographic logD [2] | Solubility ([3]; Solubility (uM)) [µM] | IC50 ([1]; read-out: FP EC50) [nM] | IC50 ([1]; read-out: beta-Catenin FP IC50) [nM] | CHI Log D [2] | Solubility [3] [µM] | IC50 [1, 5] [nM] | IC50 [1, 6] [nM]
1 | CC(=O)N1CCC[C@]12CC=CCCCC1(CCCC=CCCCCCC[C@@](C)(C(=O)N[C@@H](Cc3ccccc3)C(=O)N[C@@H](Cc3csc4ccccc34)C(=O)N[C@@H](CCC(N)=O)C(N)=O)NC(=O)[C@H](CCC(N)=O)NC(=O)[C@H](Cc3ccccc3)NC(=O)[C@H](C)NC(=O)[C@H](C)NC(=O)[C@H](CCC(=O)O)NC(=O)[C@H](CC(=O)O)NC1=O)NC(=O)[C@H](C)NC(=O)[C@H](CC(=O)O)NC2=O (stereo partly drawn) [I-406, Ac-PL3-Asp-Ala-B5-Asp-Glu-Ala-Ala-Phe-Gln-S8-Phe-BztA-Gln-NH2] | 94 | 2.04 | 28 (≈ 51.6 µg/mL) |  |  |  |  |  | 
2 | CC(=O)N1CCC[C@]12CC=CCCCC1(CCCC=CCCCCCC[C@@](C)(C(=O)N[C@@H](Cc3ccccc3)C(=O)N[C@@H](Cc3csc4ccccc34)C(=O)N[C@H](CC(N)=O)C(N)=O)NC(=O)[C@H](CC(N)=O)NC(=O)[C@H](Cc3ccccc3)NC(=O)[C@H](C)NC(=O)[C@H](C)NC(=O)[C@H](CCC(=O)O)NC(=O)[C@H](CC(=O)O)NC1=O)NC(=O)[C@H](CC(C)C)NC(=O)[C@H](CC(=O)O)NC2=O (stereo partly drawn) [I-758, Ac-PL3-Asp-Leu-B5-Asp-Glu-Ala-Ala-Phe-Asn-S8-Phe-BztA-dAsn-NH2] |  |  |  | 47 | 47 | 2.571 | 47 (≈ 87.2 µg/mL) |  | 
3 | CC(=O)N1CCC[C@]12CC=CCCCC1(CCCC=CCCCCCC[C@@](C)(C(=O)N[C@@H](Cc3ccccc3)C(=O)N[C@@H](Cc3c[nH]c4ccccc34)C(=O)N[C@@H](CCC(N)=O)C(N)=O)NC(=O)[C@H](C(C)C)NC(=O)[C@H](Cc3ccccc3)NC(=O)[C@H](C)NC(=O)[C@H](C)NC(=O)[C@H](Cc3cccnc3)NC(=O)[C@H](CC(=O)O)NC1=O)NC(=O)[C@H](C)NC(=O)[C@H](CC(=O)O)NC2=O (stereo partly drawn) [I-271, Ac-PL3-Asp-Ala-B5-Asp-3PyrA-Ala-Ala-Phe-Val-S8-Phe-Trp-Gln-NH2] |  | 2.44 |  |  |  |  | 10 (≈ 18.1 µg/mL) | 5000 | 
4 | CC(=O)N1CCC[C@]12CC=CCCCC1(CCCC=CCCCCCC[C@@](C)(C(=O)N[C@@H](Cc3ccccc3)C(=O)N[C@@H](Cc3csc4ccccc34)C(=O)N[C@@H](CCC(N)=O)C(N)=O)NC(=O)[C@H](CCC(N)=O)NC(=O)[C@H](Cc3cccc(C(F)(F)F)c3)NC(=O)[C@H](C)NC(=O)[C@H](C)NC(=O)[C@H](CC(=O)O)NC(=O)[C@H](CC(=O)O)NC1=O)NC(=O)[C@H](C)NC(=O)[C@H](CC(=O)O)NC2=O (stereo partly drawn) [I-378, Ac-PL3-Asp-Ala-B5-Asp-Asp-Ala-Ala-3F3MeF-Gln-S8-Phe-BztA-Gln-NH2] |  |  |  |  |  | 2.143 | 50 (≈ 94.8 µg/mL) | 1340 | 1340
5 | COCCOCCOCCOCCC(=O)NCCCC[C@H](NC(=O)[C@H](CCC(N)=O)NC(=O)[C@H](Cc1csc2ccccc12)NC(=O)[C@H](Cc1ccsc1)NC(=O)[C@]12CCN(C1)C(=O)OCCCC=CCCCC1(CCCC=CC[C@]3(CCCN3C(C)=O)C(=O)N[C@@H](CC(=O)O)C(=O)N[C@@H](CC(C)(C)C)C(=O)N1)C(=O)N[C@@H](CC(=O)O)C(=O)N[C@@H](CC(=O)O)C(=O)N[C@@H](C)C(=O)N[C@@H](C)C(=O)N[C@@H](Cc1ccccc1)C(=O)N[C@@H](CC(N)=O)C(=O)N2)C(N)=O (stereo partly drawn) [I-912, Ac-PL3-Asp-Npg-B5-Asp-Asp-Ala-Ala-Phe-Asn-PyrS2-3Thi-BztA-Gln-[mPEG4]Lys-NH2] |  | 1.83 | 45 (≈ 102 µg/mL) |  | 10 |  |  |  | 
6 | CC(=O)N1CCC[C@]12CC=CCCCC1(CCCC=CCCCCCC[C@@](C)(C(=O)N[C@@H](Cc3ccccc3)C(=O)N[C@@H](Cc3csc4ccccc34)C(=O)N[C@@H](CCC(N)=O)C(N)=O)NC(=O)[C@H](CCC(N)=O)NC(=O)[C@H](Cc3ccccc3)NC(=O)[C@H](C)NC(=O)[C@H](C)NC(=O)[C@H](CCC(=O)O)NC(=O)[C@H](CC(=O)O)NC1=O)NC(=O)[C@H](CC(F)F)NC(=O)[C@H](CC(=O)O)NC2=O (stereo partly drawn) [I-503, Ac-PL3-Asp-HF2CA-B5-Asp-Glu-Ala-Ala-Phe-Gln-S8-Phe-BztA-Gln-NH2] | 84 | 2.09 | 33 (≈ 62.4 µg/mL) |  |  |  |  |  | 
7 | CC(=O)N1CCC[C@]12CC=CCCCC1(CCCC=CCCCOC(=O)N3CC[C@@](C(=O)N[C@@H](Cc4ccccc4Cl)C(=O)N[C@@H](Cc4csc5ccccc45)C(=O)N[C@@H](CO)C(N)=O)(C3)NC(=O)[C@H]([C@@H](C)O)NC(=O)[C@H](Cc3ccccc3)NC(=O)[C@H](C)NC(=O)[C@H](C)NC(=O)[C@H](CC(=O)O)NC(=O)[C@H](CC(=O)O)NC1=O)NC(=O)[C@H](Cc1ccccc1)NC(=O)[C@H](CC(=O)O)NC2=O (stereo partly drawn) [I-1049, Ac-PL3-Asp-Phe-B5-Asp-Asp-Ala-Ala-Phe-Thr-PyrS2-2C1F-BztA-Ser-NH2] |  | 2.29 | 48 (≈ 91.8 µg/mL) |  | 6 |  |  |  | 
8 | CC(=O)N1CCC[C@]12CC=CCCCC1(CCCC=CCOC(=O)N(C)CCC[C@@](C)(C(=O)N[C@@H](Cc3ccsc3)C(=O)N[C@@H](Cc3csc4ccccc34)C(=O)N[C@@H](CCC(N)=O)C(N)=O)NC(=O)[C@H](CC(N)=O)NC(=O)[C@H](Cc3ccccc3)NC(=O)[C@H](C)NC(=O)[C@H](C)NC(=O)[C@H](CC(=O)O)NC(=O)[C@H](CC(=O)O)NC1=O)NC(=O)[C@H](CC(C)(C)C)NC(=O)[C@H](CC(=O)O)NC2=O (stereo partly drawn) [I-765, Ac-PL3-Asp-Npg-B5-Asp-Asp-Ala-Ala-Phe-Asn-SeN-3Thi-BztA-Gln-NH2] |  |  |  | 228 | 228 | 1.71 | 49 (≈ 94.1 µg/mL) |  | 
9 | CC(=O)N1CCC[C@]12CC=CCCCC1(CCCC=CCCCCCC[C@@](C)(C(=O)N[C@@H](Cc3ccc(C)cc3)C(=O)N[C@@H](Cc3csc4ccccc34)C(=O)N[C@@H](CCC(N)=O)C(N)=O)NC(=O)[C@H](C)NC(=O)[C@H](Cc3ccccc3)NC(=O)[C@H](C)NC(=O)[C@H](C)NC(=O)[C@H](CC(=O)O)NC(=O)[C@H](CC(=O)O)NC1=O)NC(=O)[C@H](C)NC(=O)[C@H](CC(=O)O)NC2=O (stereo partly drawn) [I-369, Ac-PL3-Asp-Ala-B5-Asp-Asp-Ala-Ala-Phe-Ala-S8-4MeF-BztA-Gln-NH2] |  | 1.66 | 40 (≈ 71.4 µg/mL) |  |  |  |  | 2310 | 
10 | CC(=O)N1CCC[C@]12CC=CCCCC1(CCCC=CCCCCCC[C@@](C)(C(=O)N[C@@H](Cc3ccsc3)C(=O)N[C@@H](Cc3csc4ccccc34)C(N)=O)NC(=O)[C@H](CC(N)=O)NC(=O)[C@H](Cc3ccccc3)NC(=O)[C@H](C)NC(=O)[C@H](C)NC(=O)[C@H](CCC(=O)O)NC(=O)[C@H](CC(=O)O)NC1=O)NC(=O)[C@H](CC(C)(C)C)NC(=O)[C@H](CC(=O)O)NC2=O (stereo partly drawn) [I-719, Ac-PL3-Asp-Npg-B5-Asp-Glu-Ala-Ala-Phe-Asn-S8-3Thi-BztA-NH2] | 38 |  |  | 38 |  | 2.818 | 28 (≈ 49.3 µg/mL) |  | 
11 | CCN(CC(=O)O)C[C@@H]1NC(=O)[C@H](CC(=O)O)NC(=O)C2(CCCC=CCCCOC(=O)N3CC[C@@](C(=O)N[C@@H](Cc4ccsc4)C(=O)N[C@@H](Cc4csc5ccccc45)C(=O)N[C@@H](CO)C(N)=O)(C3)NC(=O)[C@H](CO)NC(=O)[C@H](Cc3ccccc3)NC(=O)[C@H](C)NC(=O)[C@H](C)NC1=O)CCCC=CC[C@]1(CCCN1C(C)=O)C(=O)N[C@@H](CC(=O)O)C(=O)N[C@@H](CC(C)(C)C)C(=O)N2 (stereo partly drawn) [I-975, Ac-PL3-Asp-Npg-B5-Asp-EtGA-Ala-Ala-Phe-Ser-PyrS2-3Thi-BztA-Ser-NH2] |  |  |  |  | 2240 | 1.952 | 46 (≈ 87.7 µg/mL) |  | 1710
12 | CC(=O)N1CCC[C@]12CC=CCCCC1(CCCC=CCCCCCC[C@@](C)(C(=O)N[C@@H](Cc3cccs3)C(=O)N[C@@H](Cc3csc4ccccc34)C(=O)N[C@@H](CCC(N)=O)C(N)=O)NC(=O)[C@H](CCC(N)=O)NC(=O)[C@H](Cc3ccccc3)NC(=O)[C@H](C)NC(=O)[C@H](C)NC(=O)[C@H](CCC(=O)O)NC(=O)[C@H](CC(=O)O)NC1=O)NC(=O)[C@H](C)NC(=O)[C@H](CC(=O)O)NC2=O (stereo partly drawn) [I-428, Ac-PL3-Asp-Ala-B5-Asp-Glu-Ala-Ala-Phe-Gln-S8-2Thi-BztA-Gln-NH2] | 60 | 1.99 | 14 (≈ 25.9 µg/mL) |  |  |  |  |  | 
13 | CC(=O)N1CCC[C@]12CC=CCCCC1(CCCC=CCCCCCC[C@@](C)(C(=O)N[C@@H](Cc3ccccc3)C(=O)N[C@@H](Cc3csc4ccccc34)C(=O)N[C@@H](CCC(N)=O)C(N)=O)NC(=O)[C@H](C(C)C)NC(=O)[C@H](Cc3cccc(F)c3F)NC(=O)[C@H](C)NC(=O)[C@H](C)NC(=O)[C@H](CCC(=O)O)NC(=O)[C@H](CC(=O)O)NC1=O)NC(=O)[C@H](C)NC(=O)[C@H](CC(=O)O)NC2=O (stereo partly drawn) [I-391, Ac-PL3-Asp-Ala-B5-Asp-Glu-Ala-Ala-23FF-Val-S8-Phe-BztA-Gln-NH2] | 1910 |  |  |  |  | 2.585 | 10 (≈ 18.5 µg/mL) |  | 1910
